From PMC12697895, “Vinburnine Sensitizes Radiotherapy Efficacy in Nasopharyngeal Carcinoma by Triggering Pyroptosis and Immune Responses via Activation of EDAR‐NFκB Pathway” (Advanced Science, 2025)

Target: T1, EDAR (endogenous, SUNE1 cells) (Homo sapiens, UniProt Q9UNE0)
T1 construct: endogenous protein in SUNE1 cells, detected by Western blot
T1 sequence (Q9UNE0 27-448): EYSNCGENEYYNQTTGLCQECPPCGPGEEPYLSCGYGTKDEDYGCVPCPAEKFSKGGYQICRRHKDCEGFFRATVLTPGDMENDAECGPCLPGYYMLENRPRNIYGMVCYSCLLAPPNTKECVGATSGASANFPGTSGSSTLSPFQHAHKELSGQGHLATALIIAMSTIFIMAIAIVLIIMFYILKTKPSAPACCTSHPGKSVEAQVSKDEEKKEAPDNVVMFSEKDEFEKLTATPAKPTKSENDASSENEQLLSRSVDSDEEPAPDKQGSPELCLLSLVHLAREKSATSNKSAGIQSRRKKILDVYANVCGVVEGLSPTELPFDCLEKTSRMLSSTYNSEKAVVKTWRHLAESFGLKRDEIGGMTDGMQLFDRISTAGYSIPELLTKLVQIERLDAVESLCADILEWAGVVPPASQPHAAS
Assay: CETSA (Western blot)
Type: cell-based
Conditions: 10 µM vinburnine, intact SUNE1 cells, 12 h; six temperatures, 10 min

Structure (SMILES): CC[C@]12CCCN3CCc4c(n(c5ccccc45)C(=O)C1)[C@@H]32 [vinburnine]
- CETSA (Western blot): EDAR was more stable in vinburnine‐pretreated samples than in control samples at various temperatures
